We go through one compound from ChEMBL document CHEMBL2331105, “Selective Cyp11B1 Inhibitors for the Treatment of Cortisol Dependent Diseases” (ACS Med Chem Lett, 2013).

Molecules are shown by their SMILES.

Assay [1] addresses T1, Cytochrome P450 11B2, mitochondrial (Homo sapiens, UniProt P19099).
T1 sequence (P19099 whole entry): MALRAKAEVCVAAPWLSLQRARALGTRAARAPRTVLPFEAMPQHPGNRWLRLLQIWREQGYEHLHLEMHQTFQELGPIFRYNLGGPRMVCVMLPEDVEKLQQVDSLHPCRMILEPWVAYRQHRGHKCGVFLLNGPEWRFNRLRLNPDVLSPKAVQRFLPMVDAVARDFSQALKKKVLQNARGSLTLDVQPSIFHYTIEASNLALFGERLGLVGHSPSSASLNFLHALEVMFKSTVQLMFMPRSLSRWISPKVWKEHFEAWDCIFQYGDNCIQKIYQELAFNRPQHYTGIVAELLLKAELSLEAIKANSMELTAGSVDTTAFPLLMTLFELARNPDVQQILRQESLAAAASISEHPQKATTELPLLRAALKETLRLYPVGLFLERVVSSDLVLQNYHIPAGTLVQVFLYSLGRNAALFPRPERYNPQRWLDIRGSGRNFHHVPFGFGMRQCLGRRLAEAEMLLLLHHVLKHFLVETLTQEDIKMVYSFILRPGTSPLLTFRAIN
The assay can be described thus: Inhibition of human CYP11B2 expressed in hamster V79MZ cells using [1,2-3H]11-deoxycorticosterone as substrate preincubated for 60 mins prior to substrate addition measured after 50 mins by HPLC analysis. It is filed as cell-based.

Assay [2] addresses T2, Cytochrome P450 11B1, mitochondrial (Homo sapiens, UniProt P15538).
T2 sequence (P15538 whole entry): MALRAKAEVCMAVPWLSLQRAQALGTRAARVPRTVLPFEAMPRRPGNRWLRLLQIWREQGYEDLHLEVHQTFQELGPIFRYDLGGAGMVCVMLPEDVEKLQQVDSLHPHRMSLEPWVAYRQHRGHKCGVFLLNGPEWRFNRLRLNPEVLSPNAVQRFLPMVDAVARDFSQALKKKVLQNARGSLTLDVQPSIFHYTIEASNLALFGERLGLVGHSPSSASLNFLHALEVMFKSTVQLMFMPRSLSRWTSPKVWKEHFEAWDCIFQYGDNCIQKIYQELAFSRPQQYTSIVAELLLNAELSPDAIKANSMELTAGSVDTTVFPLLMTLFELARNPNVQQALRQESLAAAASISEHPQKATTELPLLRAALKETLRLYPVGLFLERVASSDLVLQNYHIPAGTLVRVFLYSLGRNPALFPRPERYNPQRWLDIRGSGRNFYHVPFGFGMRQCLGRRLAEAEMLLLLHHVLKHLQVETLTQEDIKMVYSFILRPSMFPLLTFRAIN
The assay can be described thus: Inhibition of human CYP11B1 expressed in hamster V79MZ cells using [1,2-3H]11-deoxycorticosterone as substrate preincubated for 60 mins prior to substrate addition measured after 25 mins by HPLC analysis. The assay is classed as cell-based.

Take `Fc1ccc(Cn2ccnc2)cn1`: the IC50 (as a rule, the concentration that gives 50% inhibition) in assay [1] is 1740 nM; in assay [2], 72 nM.
